Laboratory results: ChEMBL document CHEMBL5321295, “Targeted Degradation of Alpha-Synuclein by Autophagosome-Anchoring Chimera Peptides” (J Med Chem, 2023)
Calls of active or inactive are those of the source. The calls are words filed in the database; no cut-off is given here.

Key:
SH-SY5Y [1] = test: Cytoprotective activity in human SH-SY5Y cells transfected with alpha-synuclein (unknown origin) assessed as early apoptotic cells at 100 uM measured after 24 hrs by […] based flow cytometry (reference value: 0.17 %); format: functional
HEK-293T [2] = test: Cytotoxicity against wild-type HEK293T cells assessed as cell viability upto 200 uM incubated for 24 hrs by CCK8 assay; format: toxicity, cell-based; conditions: human
HEK-293T [3] = test: Downregulation of SLC25A3 expression in HEK293T cells at 100 uM incubated for 24 hrs by proteomic profiling analysis; format: functional, cell-based; conditions: Homo sapiens
Alpha-synuclein [4] = molecular target: T1, Alpha-synuclein (Homo sapiens, UniProt P37840); test: Induction of alpha-synuclein (unknown origin) degradation overexpressed in HEK293T cells pretreated with BafA1 at 50 uM incubated for 24 hrs by immunoblot analysis; format: cell-based
[5] = Toxicity in C57BL/6 mouse assessed as change in urea level at 50 to 200 mg/kg/day treated for 5 days; format: organism-based; conditions: in vivo, 120 h, dose 50-200 mg/kg/day, time 5 day
HEK-293T [6] = test: Downregulation of NME1 expression in HEK293T cells at 100 uM incubated for 24 hrs by proteomic profiling analysis; format: functional, cell-based; conditions: Homo sapiens
[7] = Toxicity in C57BL/6 mouse assessed as tremor at 50 to 200 mg/kg/day treated for 5 days; format: organism-based; conditions: in vivo, 120 h, dose 50-200 mg/kg/day, time 5 day
[8] = Toxicity in C57BL/6 mouse assessed as ataxia at 50 to 200 mg/kg/day treated for 5 days; format: organism-based; conditions: in vivo, 120 h, dose 50-200 mg/kg/day, time 5 day
HEK-293T [9] = test: Downregulation of SQSTM1 expression in HEK293T cells at 100 uM incubated for 24 hrs by proteomic profiling analysis; format: functional, cell-based; conditions: Homo sapiens
HEK-293T [10] = test: Downregulation of PSMB7 expression in HEK293T cells at 100 uM incubated for 24 hrs by proteomic profiling analysis; format: functional, cell-based; conditions: Homo sapiens
Alpha-synuclein [11] = molecular target: T1, Alpha-synuclein; test: Induction of alpha-synuclein (unknown origin) degradation overexpressed in HEK293T cells infected with adenovirus expressing mCherry-EGFP-LC3B at 50 uM incubated upto 24 hrs by immunoblot analysis; format: cell-based
HEK-293T [12] = test: Downregulation of NACA expression in HEK293T cells at 100 uM incubated for 24 hrs by proteomic profiling analysis; format: functional, cell-based; conditions: Homo sapiens
Alpha-synuclein [13] = molecular target: T1, Alpha-synuclein; test: Induction of alpha-synuclein (unknown origin) degradation overexpressed in HEK293T cells infected with adenovirus expressing mCherry-EGFP-LC3B incubated for 24 hrs by immunoblot analysis; format: cell-based
Alpha-synuclein [14] = molecular target: T1, Alpha-synuclein; test: Induction of alpha-synuclein (unknown origin) degradation overexpressed in HEK293T cells at 50 uM incubated for 24 hrs in presence of Rapamycin by immunoblot analysis; format: cell-based
Mus musculus [15] = test: Neuroprotective activity in MPTP-induced cognitive impairment in C57BL/6 mouse assessed as decrease in escape latency in navigation trial phase at 50 mg/kg/day, iv treated for 5 days measured after 5 to 8 days days by morris water maze test; format: functional, organism-based; conditions: time 10-13 day
Mus musculus [16] = test: Neuroprotective activity in MPTP-induced cognitive impairment in C57BL/6 mouse assessed as decrease in total distance travelled in navigation trial phase at 50 mg/kg/day, iv treated for 5 days measured after 5 to 8 days days by morris water maze test; format: functional, organism-based; conditions: time 10-13 day
HEK-293T [17] = test: Downregulation of SNCA expression in HEK293T cells at 100 uM incubated for 24 hrs by proteomic profiling analysis; format: functional, cell-based; conditions: Homo sapiens
SH-SY5Y [18] = test: Cytoprotective activity in human SH-SY5Y cells transfected with alpha-synuclein (unknown origin) assessed as cell viability at 25 uM by CCK8 assay relative to control; format: functional; conditions: read-out: Activity
[19] = molecular target: T2, Microtubule-associated protein 1 light chain 3 beta (Homo sapiens, UniProt Q9GZQ8); test: Binding affinity to biotinylated recombinant LC3B (unknown origin) assessed as dissociation constant by BLI assay
[20] = Toxicity in C57BL/6 mouse assessed as change in uric acid level at 50 to 200 mg/kg/day treated for 5 days; format: organism-based; conditions: in vivo, 120 h, dose 50-200 mg/kg/day, time 5 day
SH-SY5Y [21] = test: Cytoprotective activity in human SH-SY5Y cells transfected with alpha-synuclein (unknown origin) assessed as decrease in ROS level at 100 uM measured after 24 hrs by confocal laser scanning microscopy/flow cytometry (reference value: 175.4 +/- 8.4 %); format: functional; set-up: scale not given: the % may be the effect or the level left
HEK-293T [22] = test: Downregulation of AKR1B1 expression in HEK293T cells at 100 uM incubated for 24 hrs by proteomic profiling analysis; format: functional, cell-based; conditions: Homo sapiens
Mus musculus [23] = test: Downregulation of phosphorylated alpha-synuclein at S129 residue level in substantia nigra pars compacta of MPTP-treated C57BL/6 mouse at 50 mg/kg/day, iv treated for 5 days by immunoblot analysis; format: functional, organism-based; conditions: time 5.0 day
[24] = molecular target: T2, Microtubule-associated protein 1 light chain 3 beta; test: Binding affinity to LC3B in HEK293T cells overexpressing alpha-synuclein (unknown origin) assessed as shift in denaturation at 50 uM incubated for 4 hrs followed by heating at 40 to 75 degreeC for 3 mins by CETSA assay; format: cell-based; conditions: time 243.0 min
Mus musculus [25] = test: Downregulation of alpha-synuclein level in substantia nigra pars compacta of MPTP-treated C57BL/6 mouse at 50 mg/kg/day, iv treated for 5 days by IHC analysis; format: functional, organism-based; conditions: time 5.0 day
Mus musculus [26] = test: Neuroprotective activity in MPTP-treated C57BL/6 mouse assessed as neuron viability in substantia nigra pars compacta at 50 mg/kg/day, iv treated for 5 days by Nissl staining based microscopy; format: functional, organism-based; conditions: time 5.0 day
[27] = Toxicity in C57BL/6 mouse assessed as reduction in ALT level at 200 mg/kg/day treated for 5 days; format: organism-based; conditions: in vivo, 120 h, time 5 day
[28] = Toxicity in C57BL/6 mouse assessed as change in LDHL level at 50 to 200 mg/kg/day treated for 5 days; format: organism-based; conditions: in vivo, 120 h, dose 50-200 mg/kg/day, time 5 day
HEK-293T [29] = test: Downregulation of UBE2L3 expression in HEK293T cells at 100 uM incubated for 24 hrs by proteomic profiling analysis; format: functional, cell-based; conditions: Homo sapiens
Mus musculus [30] = test: Downregulation of phosphorylated alpha-synuclein at S129 residue level in substantia nigra pars compacta of MPTP-treated C57BL/6 mouse at 50 mg/kg/day, iv treated for 5 days by dot blot analysis; format: functional, organism-based; conditions: time 5.0 day
HEK-293T [31] = test: Downregulation of MAT1A expression in HEK293T cells at 100 uM incubated for 24 hrs by proteomic profiling analysis; format: functional, cell-based; conditions: Homo sapiens
[32] = Drug localization in HEK293T cells overexpressing mCherry-fused alpha-synuclein (unknown origin) assessed as colocalization of autophagosomes at 50 uM incubated for 2 hrs by MDC staining based confocal laser scanning microscopy; format: ADME, cell-based; conditions: human, hek-293t

**Q.** Which results are given for `CC(C)C[C@H](NC(=O)[C@H](Cc1c[nH]cn1)NC(=O)[C@@H](NC(=O)[C@H](Cc1c[nH]c2ccccc12)NC(=O)[C@H](CC(=O)O)NC(=O)[C@H](CC(=O)O)NC(=O)[C@H](CC(=O)O)NC(=O)CNC(=O)CNC(=O)[C@H](CO)NC(=O)[C@H](CO)NC(=O)CNC(=O)[C@H](CO)NC(=O)CNC(=O)[C@H](CCCNC(=N)N)NC(=O)[C@@H](NC(=O)[C@H](CCCCN)NC(=O)[C@H](CO)NC(=O)CNC(=O)[C@@H](NC(=O)[C@H](Cc1ccc(O)cc1)NC(=O)[C@H](CC(C)C)NC(=O)[C@@H](NC(=O)CN)C(C)C)C(C)C)[C@H](C)O)[C@@H](C)O)C(=O)N[C@@H](CO)C(=O)N[C@@H](CO)C(=O)N[C@@H](Cc1ccc(O)cc1)C(=O)NCC(=O)N[C@@H](CCCNC(=N)N)C(=O)N[C@@H](CCCCN)C(=O)N[C@@H](CCCCN)C(=O)N[C@@H](CCCNC(=N)N)C(=O)N[C@@H](CCCNC(=N)N)C(=O)N[C@@H](CCC(N)=O)C(=O)N[C@@H](CCCNC(=N)N)C(=O)N[C@@H](CCCNC(=N)N)C(=O)N[C@@H](CCCNC(=N)N)C(=O)O`?
**A.** Activity (SH-SY5Y [1]): 0.76%; Activity (HEK-293T [2]): Non-Toxic; Activity (HEK-293T [3]): Active; Activity (Alpha-synuclein [4]): inactive; Activity [5]: Non-Toxic; Activity (HEK-293T [6]): Active; Activity [7]: Non-Toxic; Activity [8]: Non-Toxic; Activity (HEK-293T [9]): Active; Activity (HEK-293T [10]): Active; Activity (Alpha-synuclein [11]): Active; Activity (HEK-293T [12]): Active; DC50 (Alpha-synuclein [13]): 46.8 µM; Activity (Alpha-synuclein [13]; dose <= 200.0 µM): Dose-Dependent Effect; Activity (Alpha-synuclein [14]): Active; Activity (Mus musculus [15]): Active; Activity (Mus musculus [16]): Active; Activity (HEK-293T [17]): Active; viability at 25 µM (SH-SY5Y [18]): 85.6%; Kd [19]: 14.9 µM; Activity [20]: Non-Toxic; Activity (SH-SY5Y [21]): 127.7%; Activity (HEK-293T [22]): Active; Activity (Mus musculus [23]): Active; Activity [24]: Active; Activity (Mus musculus [25]): Active; Activity (Mus musculus [26]): Active; Activity [27]: Toxic; Activity [28]: Non-Toxic; Activity (HEK-293T [29]): Active; Activity (Mus musculus [30]): Active; Activity (HEK-293T [31]): Active; Drug uptake [32]: Active
